Experimental data reported in PubChem BioAssay AID1259407 (Chemical Carcinogenesis Research Information System (CCRIS), 2018).
Active and inactive are the calls of the source. How the calls were made is not given here.

System: CCRIS mutagenicity, Ames/micronucleus/aberration tests
Test: CCRIS mutagenicity studies
[1] = Test System: AMES SALMONELLA TYPHIMURIUM, Strain/Indicator: TA98, Metabolic Activation: NONE, Method: PREINCUBATION
[2] = Test System: AMES SALMONELLA TYPHIMURIUM, Strain/Indicator: TA100, Metabolic Activation: NONE, Method: PREINCUBATION
[3] = Test System: AMES SALMONELLA TYPHIMURIUM, Strain/Indicator: TA98, Metabolic Activation: RAT, LIVER, S-9, AROCLOR 1254, Method: STANDARD PLATE

## O=C1NC(=O)c2cc([N+](=O)[O-])ccc21
Test System: AMES SALMONELLA TYPHIMURIUM, Strain/Indicator: TA97, Metabolic Activation: HAMSTER, LIVER, S-9, AROCLOR 1254 (10%), Method: PREINCUBATION
  mutagenic call: inactive; negative
Test System: AMES SALMONELLA TYPHIMURIUM, Strain/Indicator: TA97, Metabolic Activation: NONE, Method: PREINCUBATION
  mutagenic call: active; positive
Test System: AMES SALMONELLA TYPHIMURIUM, Strain/Indicator: TA97, Metabolic Activation: RAT, LIVER, S-9, AROCLOR 1254 (10%), Method: PREINCUBATION
  mutagenic call: inactive; negative
Test System: AMES SALMONELLA TYPHIMURIUM, Strain/Indicator: TA98, Metabolic Activation: HAMSTER, LIVER, S-9, AROCLOR 1254 (10%), Method: PREINCUBATION
  mutagenic call: active; positive
[1]
  mutagenic call: active; positive
Test System: AMES SALMONELLA TYPHIMURIUM, Strain/Indicator: TA98, Metabolic Activation: RAT, LIVER, S-9, AROCLOR 1254 (10%), Method: PREINCUBATION
  mutagenic call: active; positive
Test System: AMES SALMONELLA TYPHIMURIUM, Strain/Indicator: TA100, Metabolic Activation: HAMSTER, LIVER, S-9, AROCLOR 1254 (10%), Method: PREINCUBATION
  mutagenic call: inactive; negative
[2]
  mutagenic call: inactive; negative
Test System: AMES SALMONELLA TYPHIMURIUM, Strain/Indicator: TA100, Metabolic Activation: RAT, LIVER, S-9, AROCLOR 1254 (10%), Method: PREINCUBATION
  mutagenic call: inactive; negative
Test System: AMES SALMONELLA TYPHIMURIUM, Strain/Indicator: TA1535, Metabolic Activation: HAMSTER, LIVER, S-9, AROCLOR 1254 (10%), Method: PREINCUBATION
  mutagenic call: inactive; negative
Test System: AMES SALMONELLA TYPHIMURIUM, Strain/Indicator: TA1535, Metabolic Activation: NONE, Method: PREINCUBATION
  mutagenic call: inactive; negative
Test System: AMES SALMONELLA TYPHIMURIUM, Strain/Indicator: TA1535, Metabolic Activation: RAT, LIVER, S-9, AROCLOR 1254 (10%), Method: PREINCUBATION
  mutagenic call: inactive; negative
Test System: AMES SALMONELLA TYPHIMURIUM, Strain/Indicator: TA1537, Metabolic Activation: HAMSTER, LIVER, S-9, AROCLOR 1254 (10%), Method: PREINCUBATION
  mutagenic call: active; positive
Test System: AMES SALMONELLA TYPHIMURIUM, Strain/Indicator: TA1537, Metabolic Activation: NONE, Method: PREINCUBATION
  mutagenic call: active; positive
Test System: AMES SALMONELLA TYPHIMURIUM, Strain/Indicator: TA1537, Metabolic Activation: RAT, LIVER, S-9, AROCLOR 1254 (10%), Method: PREINCUBATION
  mutagenic call: active; positive

## CCOc1ccc(N)cc1
Test System: AMES SALMONELLA TYPHIMURIUM, Strain/Indicator: TA98, Metabolic Activation: HAMSTER, LIVER, S-9, AROCLOR 1254 (30%), Method: PREINCUBATION
  mutagenic call: inactive; negative
[1]
  mutagenic call: inactive; negative
Test System: AMES SALMONELLA TYPHIMURIUM, Strain/Indicator: TA98, Metabolic Activation: RAT, LIVER, S-9, AROCLOR 1254 (30%), Method: PREINCUBATION
  mutagenic call: inactive; negative
Test System: AMES SALMONELLA TYPHIMURIUM, Strain/Indicator: TA100, Metabolic Activation: HAMSTER, LIVER, S-9, AROCLOR 1254 (30%), Method: PREINCUBATION
  mutagenic call: active; positive
Test System: AMES SALMONELLA TYPHIMURIUM, Strain/Indicator: TA100, Metabolic Activation: HAMSTER, LIVER, S-9, KANECHLOR 400, Method: PREINCUBATION
  mutagenic call: active; positive
[2]
  mutagenic call: inactive; negative
Test System: AMES SALMONELLA TYPHIMURIUM, Strain/Indicator: TA100, Metabolic Activation: RAT, LIVER, S-9, AROCLOR 1254 (30%), Method: PREINCUBATION
  mutagenic call: active; positive
Test System: UDS RODENT HEPATOCYTES, Strain/Indicator: THY INCORP (NON-S-PHASE), Metabolic Activation: NONE, Method: AUTORADIOGRAPHY
  mutagenic call: inactive; negative

## C=C(CN(C)C)C(=O)c1ccccc1
Test System: AMES SALMONELLA TYPHIMURIUM, Strain/Indicator: TA97A, Metabolic Activation: NONE, Method: SPOT TEST
  mutagenic call: inactive; negative
Test System: AMES SALMONELLA TYPHIMURIUM, Strain/Indicator: TA97A, Metabolic Activation: RAT LIVER S-9, Method: SPOT TEST
  mutagenic call: inactive; negative
Test System: AMES SALMONELLA TYPHIMURIUM, Strain/Indicator: TA98, Metabolic Activation: NONE, Method: SPOT TEST
  mutagenic call: inactive; negative
Test System: AMES SALMONELLA TYPHIMURIUM, Strain/Indicator: TA98, Metabolic Activation: RAT LIVER S-9, Method: SPOT TEST
  mutagenic call: inactive; negative
Test System: AMES SALMONELLA TYPHIMURIUM, Strain/Indicator: TA100, Metabolic Activation: NONE, Method: SPOT TEST
  mutagenic call: inactive; negative
Test System: AMES SALMONELLA TYPHIMURIUM, Strain/Indicator: TA100, Metabolic Activation: RAT LIVER S-9, Method: SPOT TEST
  mutagenic call: active; positive
Test System: AMES SALMONELLA TYPHIMURIUM, Strain/Indicator: TA102, Metabolic Activation: NONE, Method: SPOT TEST
  mutagenic call: inactive; negative
Test System: AMES SALMONELLA TYPHIMURIUM, Strain/Indicator: TA102, Metabolic Activation: RAT LIVER S-9, Method: SPOT TEST
  mutagenic call: inactive; negative
Test System: AMES SALMONELLA TYPHIMURIUM, Strain/Indicator: TA104, Metabolic Activation: NONE, Method: SPOT TEST
  mutagenic call: inactive; negative
Test System: AMES SALMONELLA TYPHIMURIUM, Strain/Indicator: TA104, Metabolic Activation: RAT LIVER S-9, Method: SPOT TEST
  mutagenic call: inactive; negative
Test System: AMES SALMONELLA TYPHIMURIUM, Strain/Indicator: TA1535, Metabolic Activation: NONE, Method: SPOT TEST
  mutagenic call: inactive; negative
Test System: AMES SALMONELLA TYPHIMURIUM, Strain/Indicator: TA1538, Metabolic Activation: NONE, Method: SPOT TEST
  mutagenic call: inactive; negative

## CC(C)(C)CC(C)(C)c1ccc(OCCO)cc1
Test System: MOUSE LYMPHOMA, Strain/Indicator: L5178Y (TK+/TK-), Metabolic Activation: NONE, Method: SUSPENSION/PLATE
  mutagenic call: inactive; negative

## Cc1cnc2c(n1)c(C)cc1c2nc(N)n1C
[3]
  mutagenic call: active; positive

## Oc1cc(Cl)c(Cl)cc1Cl
Test System: AMES SALMONELLA TYPHIMURIUM, Strain/Indicator: TA97, Metabolic Activation: NONE, Method: STANDARD PLATE
  mutagenic call: active; positive
Test System: AMES SALMONELLA TYPHIMURIUM, Strain/Indicator: TA97, Metabolic Activation: RAT, LIVER, S-9, AROCLOR 1254, Method: STANDARD PLATE
  mutagenic call: active; positive
Test System: AMES SALMONELLA TYPHIMURIUM, Strain/Indicator: TA98, Metabolic Activation: NONE
  mutagenic call: inactive; negative
Test System: AMES SALMONELLA TYPHIMURIUM, Strain/Indicator: TA98, Metabolic Activation: NONE, Method: STANDARD PLATE
  mutagenic call: active; positive
Test System: AMES SALMONELLA TYPHIMURIUM, Strain/Indicator: TA98, Metabolic Activation: RAT, LIVER, S-9, AROCLOR 1254
  mutagenic call: inactive; negative
[3]
  mutagenic call: active; positive
Test System: AMES SALMONELLA TYPHIMURIUM, Strain/Indicator: TA100, Metabolic Activation: NONE
  mutagenic call: inactive; negative
Test System: AMES SALMONELLA TYPHIMURIUM, Strain/Indicator: TA100, Metabolic Activation: NONE, Method: STANDARD PLATE
  mutagenic call: active; positive
Test System: AMES SALMONELLA TYPHIMURIUM, Strain/Indicator: TA100, Metabolic Activation: RAT, LIVER, S-9, AROCLOR 1254
  mutagenic call: inactive; negative
Test System: AMES SALMONELLA TYPHIMURIUM, Strain/Indicator: TA100, Metabolic Activation: RAT, LIVER, S-9, AROCLOR 1254, Method: STANDARD PLATE
  mutagenic call: inactive; negative
Test System: AMES SALMONELLA TYPHIMURIUM, Strain/Indicator: TA102, Metabolic Activation: NONE
  mutagenic call: inactive; negative
Test System: AMES SALMONELLA TYPHIMURIUM, Strain/Indicator: TA102, Metabolic Activation: RAT, LIVER, S-9, AROCLOR 1254
  mutagenic call: inactive; negative
Test System: AMES SALMONELLA TYPHIMURIUM, Strain/Indicator: TA104, Metabolic Activation: NONE
  mutagenic call: inactive; negative
Test System: AMES SALMONELLA TYPHIMURIUM, Strain/Indicator: TA104, Metabolic Activation: NONE, Method: STANDARD PLATE
  mutagenic call: inactive; negative
Test System: AMES SALMONELLA TYPHIMURIUM, Strain/Indicator: TA104, Metabolic Activation: RAT, LIVER, S-9, AROCLOR 1254
  mutagenic call: inactive; negative
Test System: AMES SALMONELLA TYPHIMURIUM, Strain/Indicator: TA104, Metabolic Activation: RAT, LIVER, S-9, AROCLOR 1254, Method: STANDARD PLATE
  mutagenic call: inactive; negative
Test System: CHINESE HAMSTER V-79, Strain/Indicator: V-79/6-THIOGUANINE, Metabolic Activation: NONE, Method: STANDARD PLATE
  mutagenic call: inactive; negative

## Fc1ccc(F)c2c1ccc1cccnc12
Test System: AMES SALMONELLA TYPHIMURIUM, Strain/Indicator: TA100, Metabolic Activation: RAT, LIVER, S-9, PHENOBARBITAL AND 5,6-BENZOFLAVONE, Method: PREINCUBATION
  mutagenic call: active; positive
